We go through 1 molecule from ChEMBL document CHEMBL4765331, “Amides of pyrrole- and thiophene-fused anthraquinone derivatives: A role of the heterocyclic core in antitumor properties” (Eur J Med Chem, 2020).

What is called IC50 is the concentration needed to halve the response being measured. The Kd is the free concentration of one partner at which half of the binding sites on the other are occupied at equilibrium, for simple one-to-one binding. Broadly, the T/C is the result in the treated group divided by that in the control group, in per cent.

One data set relates to HCT-116. The experiment in a line: Antiproliferative activity against human HCT-116 cells with inactivated p53 gene assessed as inhibition of cell proliferation measured after 72 hrs by MTT assay. The format is functional, cell-based. Particulars: HCT-116, 72 h. Background: Tetrazolium dyes change colour on reduction, which living cells bring about.
Data set [1] is described as follows: Drug uptake in human K562i/S9 cells harboring exogenously expressed MDR1/Pgp. The format is ADME, cell-based.
Data set [2] is described as follows: Selectivity index, ratio of IC50 for human TERT-RPE1 cells to IC50 for human HCT-116 cells. Particulars: TERT-RPE1 cells and HCT-116 cells, read-out: Ratio IC50. Type of data set: toxicity.
The subject of data set [3] is K562. The experiment in a line: Induction of apoptosis in human K562 cells assessed as viable cells at 1.6 uM measured after 48 hrs by Annexin V-APC/PI staining based flow cytometry assay (reference value: 85.9%). Type of data set: functional. Particulars: read-out: Activity. Background: Flow cytometry measures light scatter and fluorescence of single cells or particles in a stream.

The test system of data set [4] is K562. The experiment in a line: Induction of apoptosis in human K562 cells assessed as viable cells at 1.6 uM measured after 24 hrs by Annexin V-APC/PI staining based flow cytometry assay (reference value: 85.9%). The format is functional. As to conditions: read-out: Activity.
Data set [5] can be described thus: Selectivity index, ratio of IC50 for human TERT-RPE1 cells to IC50 for human K562 cells. Type of data set: toxicity. As to conditions: TERT-RPE1 cells and K562 cells, read-out: Ratio IC50.
Data set [6] relates to P388. Kind of data set: Antitumour activity against mouse P388 cells xenografted subcutaneously in BDF1 mouse assessed as inhibition of tumour growth at 20 mg/kg, ip administered qd for 5 days starting from day 1 of tumor cell inoculation and measured at day 18 post-tumor cell inoculation. As to conditions: P388, 432 h, time 18 day, read-out: TGI. Type of data set: functional.

Data set [7] can be described thus: Antiproliferative activity against P-gp-positive/doxorubicin-resistant human K562/4 cells assessed as inhibition of cell proliferation measured after 72 hrs by MTT assay. The format is functional. As to conditions: K562/4, 72 h.
A short description of data set [8]: Selectivity index, ratio of IC50 for human TERT-RPE1 cells to IC50 for human HL-60 cells. Type of data set: toxicity. As to conditions: TERT-RPE1 cells and HL-60 cells, read-out: Ratio IC50.
Data set [9] concerns K562. Kind of data set: Induction of apoptosis in human K562 cells assessed as late apoptotic cells at 1.6 uM measured after 48 hrs by Annexin V-APC/PI staining based flow cytometry assay (reference value: […]). The format is functional.
Data set [10] relates to K562. Kind of data set: Induction of cell cycle arrest in human K562 cells assessed as accumulation at G2/M phase at 2XIC50 measured after 24 hrs by propidium iodide/RNase staining based flow cytometry. Type of data set: functional.
The test system of data set [11] is Calf thymus DNA. The experiment in a line: Binding affinity to calf thymus DNA assessed as dissociation constant by scatchard plot analysis. Further details: species or system Bos taurus.
In data set [12] the test system is K562. Kind of data set: Induction of apoptosis in human K562 cells assessed as early apoptotic cells at 1.6 uM measured after 48 hrs by Annexin V-APC/PI staining based flow cytometry assay (reference value: 3.4%). Type of data set: functional.
Data set [13] relates to Calf thymus DNA. The experiment in a line: Binding affinity to calf thymus DNA assessed as binding constant by scatchard plot analysis. As to conditions: Bos taurus.
For data set [14], the system named is P388. The experiment in a line: Antitumour activity against mouse P388 cells xenografted intraperitoneally in BDF1 mouse assessed as […] T/C ratio at 20 mg/kg, ip administered qd for 5 days (reference value: 100%). Type of data set: functional. Particulars: dose 20 mg/kg/day; time 5 day.
Data set [15] can be described thus: Drug uptake in mouse NIH3T3 cells assessed as compound localization in nucleus at 1 uM measured after 15 mins by laser scanning microscope. The format is ADME, subcellular. As to conditions: nih3t3, 0.25 h.
Data set [16] in a line: Drug uptake in mouse NIH3T3 cells assessed as compound localization in cytoplasm at 1 uM measured after 15 mins by laser scanning microscope. The format is ADME, subcellular. As to conditions: nih3t3, 0.25 h.
The nature of data set [17]: Resistance index, ratio of IC50 for human P-gp-positive/Doxorubicin-resistant K562/4 cells to IC50 for human K562 cells. Type of data set: functional.

Calls of active or inactive are those of the source. The calls are words filed in the database; no cut-off is given here.

Take `Cc1[nH]c2c(O)c3c(c(O)c2c1C(=O)N1CC[C@H](N)C1)C(=O)c1ccccc1C3=O`: the values for the 50% inhibitory concentration (IC50) (with HCT-116; in data set [7]) were 800 nM and 21200 nM, respectively. Also, the Drug uptake result in [1], in data set [15] and in [16] was “Active” in each case. The selectivity ratio in data set [2], in data set [5] and in data set [8] was 18 in each case. The figures for the viability at 1.6 µM in the data set with K562 [3] and with K562 [4] were 56.6% and 69.4%, respectively. Further, the inhibition in vivo at 20 mg/kg in the data set on P388 [6] is 65%. For the same molecule, the Activity is 7.5% in the data set with K562 [9] and 0.9% in the data set with K562 [12]. Also, the result in the data set on K562 [10] was Active. The Kd in the data set on Calf thymus DNA [11] is 700 nM. In addition, the Kb with Calf thymus DNA [13] is 14 10^5/M. Further, the T/C with P388 [14] was found to be 153%. For the same molecule, the “Ratio IC50” value in data set [17] is 26.5.
